Laboratory results from EP0900210B1, “ANTIVIRALLY ACTIVE HETEROCYCLIC AZAHEXANE DERIVATIVES” (Novartis AG, priority 1996, dated 1997).

These compounds were tested against T1, HIV-1-protease (Human immunodeficiency virus type 1 group M subtype B, UniProt P04585) (assay: Inhibition of HIV-1-protease with icosapeptide substrate […] (HPLC)). Details: icosapeptide […] 122 µM, 20 mM MES pH 6.0, one hour at 37°C; read-out: IC50.
T1 construct: made in house
Format: biochemical
Procedure: The inhibitory action of the compounds of formula I on the proteolytic activity of HIV-1-protease can be shown, for example, according to known procedures (see A. D. Richards et al., J. Biol. Chem. 265(14), 7733-7736 (1990)). In that method the inhibition of the action of HIV-1-protease (preparation: see S. Billich et al., J. Biol. Chem. 263(34), 17905-17908 (1990)) is measured in the presence of the icosapeptide […] (a synthetic substrate of HIV-1-protease, prepared by peptide synthesis in accordance with known procedures (see J. Schneider et al., Cell 54, 363-368 (1988)), which contains as substrate analogue one of the cleavage sites of the gag-precursor protein (natural substrate of HIV-1-protease). That substrate and its cleavage products are analysed by high performance liquid chromatography (HPLC).
The test compound is dissolved in dimethyl sulfoxide. The enzymatic test is carried out by adding suitable dilutions of the inhibitor in 20 mM β-morpholinoethanesulfonic acid (MES) buffer pH 6.0 to the test mixture. That mixture consists of the above-mentioned icosapeptide (122 µM) in 20 mM MES-buffer pH 6.0. 100 µl are used per test batch. The reaction is started by the addition of […] of HIV-1-protease solution and is stopped after one hour's incubation at 37°C by the addition of 10 µl of 0.3M HClO4. After centrifugation of the sample at 10 000 x g for 5 minutes, 20 µl of the resulting supernatant are applied to a 125 x 4.6 mm Nucleosil® C18-5m-HPLC column (reversed-phase material supplied by Macherey & Nagel, Düren, FRG, based on silica gel that has been charged with C18alkyl chains). The uncleaved icosapeptide and its cleavage products are eluted from the column by means of the following gradient: 100 % eluant 1 → 50 % eluant 1 + 50 % eluant 2 (eluant 1: 10 % acetonitrile, 90 % H2O, 0.1 % trifluoroacetic acid (TFA); eluant 2: 75 % acetonitrile, 25 % H2O, 0.08 % TFA) for 15 minutes, throughflow rate 1 ml/min. The quantification of the eluted peptide fragments is carried out by measuring the peak height of the cleavage product at 215 nm.
Using the test system described above with the icosapeptide […], the IC50 values given below are obtained for the following Examples: […]

| Compound | IC50 |
| --- | --- |
| CCOC(=O)N[C@H](C(=O)NN(Cc1ccc(-c2nccs2)cc1)C[C@H](O)[C@H](Cc1ccccc1)NC(=O)[C@@H](NC(=O)OC)C(C)C)C(C)C [Example 19, 1-[4-(Thiazol-2-yl)-phenyl]-4(S)-hydroxy-2-N-(N-ethoxycarbonyl-(L)-valyl)amino-5(S)-N-(N-methoxycarbonyl-(L)-valyl)amino-6-phenyl-2-azahexane] | 22 nM |
| COC(=O)N[C@H](C(=O)N[C@@H](Cc1ccccc1)[C@@H](O)CN(Cc1ccc(-c2nccs2)cc1)NC(=O)[C@@H](NC(=O)OC)C(C)C)C(C)C [Example 20, 1-[4-(Thiazol-2-yl)-phenyl]-4(S)-hydroxy-5(S)-2,5-bis[N-(N-methoxycarbonyl-(L)-valyl)amino]-6-phenyl-2-azahexane] | 15 nM |
| CC[C@H](C)[C@H](NC(=O)OC)C(=O)N[C@@H](Cc1ccccc1)[C@@H](O)CN(Cc1ccc(-c2nccs2)cc1)NC(=O)[C@@H](NC(=O)OC)C(C)(C)C [Example 21, 1-[4-(Thiazol-2-yl)-phenyl]-4(S)-hydroxy-2-N-(N-methoxycarbonyl-(L)-tert-leucyl)amino-5(S)-N-(N-methoxycarbonyl-(L)-iso-leucyl)amino-6-phenyl-2-azahexane] | 43 nM |
| CCOC(=O)N[C@H](C(=O)NN(Cc1ccc(-c2nccs2)cc1)C[C@H](O)[C@H](Cc1ccccc1)NC(=O)[C@@H](NC(=O)OC)[C@@H](C)CC)C(C)C [Example 22, 1-[4-(Thiazol-2-yl)-phenyl]-4(S)-hydroxy-2-N-(N-ethoxycarbonyl-(L)-valyl)amino-5(S)-N-(N-methoxycarbonyl-(L)-iso-leucyl)amino-6-phenyl-2-azahexane] | 40 nM |
| CC[C@H](C)[C@H](NC(=O)OC)C(=O)N[C@@H](Cc1ccccc1)[C@@H](O)CN(Cc1ccc(-c2nccs2)cc1)NC(=O)[C@@H](NC(=O)OC)C(C)C [Example 23, 1-[4-(Thiazol-2-yl)-phenyl]-4(S)-hydroxy-2-N-(N-methoxycarbonyl-(L)-valyl)amino-5(S)-N-(N-methoxycarbonyl-(L)-iso-leucyl)amino-6-phenyl-2-azahexane] | 34 nM |
| CC[C@H](C)[C@H](NC(=O)OC)C(=O)N[C@@H](Cc1ccccc1)[C@@H](O)CN(Cc1ccc(-c2nccs2)cc1)NC(=O)[C@H](CSC)NC(=O)OC [Example 24, 1-[4-(Thiazol-2-yl)-phenyl]-4(S)-hydroxy-2-N-(N-methoxycarbonyl-(L)-S-methylcysteinyl)amino-5(S)-N-(N-methoxycarbonyl-(L)-iso-leucyl)amino-6-phenyl-2-azahexane] | 50 nM |
| COC(=O)N[C@H](C(=O)N[C@@H](Cc1ccccc1)[C@@H](O)CN(Cc1ccc(-c2nnn(C(C)(C)c3ccccc3)n2)cc1)NC(=O)[C@@H](NC(=O)OC)C(C)(C)C)C(C)(C)C [Example 25, 1-{4-[2-(1-Methyl-1-phenyl-ethyl)-2H-tetrazol-5-yl]-phenyl}-4(S)-hydroxy-5(S)-2,5-bis[N-(N-methoxycarbonyl-(L)-tert-leucyl)amino]-6-phenyl-2-azahexane] | 100 nM |
| COC(=O)N[C@H](C(=O)N[C@@H](Cc1ccccc1)[C@@H](O)CN(Cc1ccc(-c2nnn[nH]2)cc1)NC(=O)[C@@H](NC(=O)OC)C(C)(C)C)C(C)(C)C [Example 26, 1-[4-(Tetrazol-5-yl)-phenyl]-4(S)-hydroxy-5(S)-2,5-bis[N-(N-methoxycarbonyl-(L)-tert-leucyl)amino]-6-phenyl-2-azahexane] | 21 nM |
| COC(=O)N[C@H](C(=O)N[C@@H](Cc1ccccc1)[C@@H](O)CN(Cc1ccc(-c2nnn(C)n2)cc1)NC(=O)[C@@H](NC(=O)OC)C(C)(C)C)C(C)(C)C [Example 27, 1-[4-(2-Methyl-2H-tetrazol-5-yl)-phenyl]-4(S)-hydroxy-5(S)-2,5-bis[N-(N-methoxycarbonyl-(L)-tert-leucyl)amino]-6-phenyl-2-azahexane] | 27 nM |
